The source of these data is patent EP4786466A1, “QUINAZOLINE DERIVATIVE, SALT THEREOF, AND PHARMACEUTICAL COMPOSITION COMPRISING SAME AS ACTIVE INGREDIENT” (Korea Research Institute of Chemical Technology, priority 2023, dated 2025).

Where two headings read alike, the source gives them in different places.

In data set [1] the test system is MCF7 breast cancer cell lines. The data set can be described thus: Cell viability analysis, WST-8 assay, MCF7. As to conditions: for viability at 1 µM: read-out: Cell viability (%) WST-8, MCF7 (1 µM), compound 1 µM, 72 hours; for viability at 1.25 µM: read-out: Cell viability (%) WST-8, MCF7, footnote a: concentration 1.25 µM, 72 hours.
Protocol: MCF7 breast cancer cell lines and MCF10A normal breast cancer cell lines were treated with serial dilutions of the compounds of the present invention ranging from 1 µM to 15.63 nM for 72 hours. Cell viability was measured by the WST-8 assay (Cyto XTM cell viability assay kit; LPS solution, Daejeon, Korea) according to the manufacturer's instructions.
The next data set relates to pENSA. The data set can be described thus: pENSA level by immunofluorescence (described method: in vitro kinase analysis with GST-tag-MASTL and His-tag-ENSA). The data set is classed as cell-based. As to conditions: for pENSA (%) Immunofluor ecense (1 µM): compound 1 µM. As for the experimental part:
Two recombinant GST-tag-MASTL (Thermo Fisher Scientific) and His-tag-ENSA (Sino Biological Inc., Beijing, China) were used for in vitro kinase analysis. In vitro kinase analysis was performed as described in the literature [Front Oncol 2020, 10, 571601, 39-202021-10-20doi:10.3389/fonc.2020.571601.].
Phosphorylated ENSA (pENSA), which is activated by phosphorylation by MASTL, can be utilized as a biomarker as it is expected that its activity will be inhibited along with the inhibition of MASTL. In the cell viability assay, MCF7 refers to a breast cancer cell line, and MCF10A refers to a normal breast […] cell line.

A further data set in a line: in vitro. As to conditions: human.
For data set [2], the target named is T1, Recombinant GST-TAG-MASTL (Homo sapiens, UniProt Q96GX5).
T1 construct: GST; purchased Thermo Fisher Scientific
T1 sequence (Q96GX5 1-879): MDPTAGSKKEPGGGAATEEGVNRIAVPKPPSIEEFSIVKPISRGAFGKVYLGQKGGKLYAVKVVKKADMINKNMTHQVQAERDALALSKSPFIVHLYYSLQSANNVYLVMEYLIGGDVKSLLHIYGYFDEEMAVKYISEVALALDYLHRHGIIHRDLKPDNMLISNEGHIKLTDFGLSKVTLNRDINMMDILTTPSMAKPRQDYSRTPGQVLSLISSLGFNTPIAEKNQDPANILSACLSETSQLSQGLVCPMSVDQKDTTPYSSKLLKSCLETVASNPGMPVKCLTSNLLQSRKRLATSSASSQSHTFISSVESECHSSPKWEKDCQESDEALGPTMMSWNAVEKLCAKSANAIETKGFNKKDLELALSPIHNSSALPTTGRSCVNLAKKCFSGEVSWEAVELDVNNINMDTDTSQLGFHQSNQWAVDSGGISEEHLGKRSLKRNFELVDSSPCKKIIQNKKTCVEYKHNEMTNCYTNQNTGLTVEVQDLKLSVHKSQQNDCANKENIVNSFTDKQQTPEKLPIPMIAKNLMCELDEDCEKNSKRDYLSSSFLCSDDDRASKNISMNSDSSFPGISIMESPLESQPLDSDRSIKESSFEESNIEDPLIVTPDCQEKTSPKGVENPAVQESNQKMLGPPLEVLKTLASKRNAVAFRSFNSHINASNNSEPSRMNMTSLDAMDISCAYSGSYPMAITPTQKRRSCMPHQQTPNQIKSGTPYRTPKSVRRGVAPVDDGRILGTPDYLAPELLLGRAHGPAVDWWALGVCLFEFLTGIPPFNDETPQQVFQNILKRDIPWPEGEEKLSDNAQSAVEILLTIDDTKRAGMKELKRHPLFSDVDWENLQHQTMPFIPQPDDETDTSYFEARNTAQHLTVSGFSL
The data set is described as follows: HTRF-based kinase assay (HTRF KinEASE assay kit). The data set is classed as biochemical. As to conditions: for activity at 1 µM: read-out: MASTL activity (%) HTRF (1 µM). The source says: Recombinant GST-TAG-MASTL (Thermo Fisher Scientific, MA, USA) was used for HTRF-based kinase assays. The HTRF KinEASE assay kit (CisBio, MA, USA) was used according to the manufacturer's instructions.

[3] abbreviates: HTRF, read-out: IC50(nM) MASTL activity.

Turning to `O=S(=O)(c1ccc(F)cc1F)N1CC2CCC1CN2c1nc(Nc2cc(C3CC3)[nH]n2)c2ccccc2n1` (centres unmarked) [compound 24c, M-(5-cyclopropyl-1G-pyrazol-3-yl)-2-(5-((2,4-difluorophenyl)sulfonyl)-2,5-diazabicyclo[2.2.2]octan-2-yl)quinazolin-4-amine], the viability at 1 µM was found to be 68.3% in data set [1] (Homo sapiens, MCF7, 72 h) and 10.8% in the data set “in vitro” (mcf10a cells). Besides, the “pENSA (%) Immunofluor ecense (1 µM)” value with pENSA is listed as 24.3%. Further, the activity at 1 µM in data set [2] (compound 1 µM) stood at 16.6%.

`NCCCCNC(=O)c1ccc(Nc2nc(Nc3cc(C4CC4)[nH]n3)c3ccccc3n2)cc1` [4ac, M-(4-aminobutyl)-4-((4-((5-cyclopropyl-1G-pyrazol-3-yl)amino)quinazolin-2-yl)amino)benzamide.trifluoroacetic acid]: the viability at 1 µM turned out to be 104% in data set [1] (Homo sapiens, MCF7, 72 h) and 102% in the data set “in vitro” (mcf10a cells). For the same compound, in the data set with pENSA, the “pENSA (%) Immunofluor ecense (1 µM)” value is on record as 149%. For the same compound, the activity at 1 µM in data set [2] was 58.3%.

Turning to `CN(C)S(=O)(=O)c1ccc(Nc2nc(Nc3cc(C4CC4)[nH]n3)c3ccccc3n2)cc1` [compound 4j, 4-((4-((5-cyclopropyl-1G-pyrazol-3-yl)amino)quinazolin-2-yl)amino)-M,M-dimethylbenzenesulfonamide], the viability at 1.25 µM in data set [1] (Homo sapiens, MCF7, 72 h) stood at 22.8%; in “in vitro” (mcf10a cells) it was 21.6%. Moreover, the concentration for half-maximal inhibition (IC50) in data set [1] (Homo sapiens, MCF7, 72 h, read-out: IC50(nM) Cell viability (MCF7)) stood at 713 nM; in the data set on pENSA (read-out: IC50(nM) pENSA), 420 nM; in data set [2] (setting [3]) it was 527 nM. Also, the “selectivity for breast cancer cells over normal cells in the cell viability assay” value in data set [1] (MCF7 versus MCF10A) was “selectively inhibit only breast cancer cells”. Also, in the data set with pENSA, the “pENSA (%) Immunofluor ecense (1 µM)” value amounted to 5.2%. Further, the activity at 1.25 µM in data set [2] (footnote a: concentration 1.25 µM, read-out: MASTL activity (%) HTRF) is 27%.

As for `C1=C(Cc2ccccc2)CCN(c2nc(Nc3cc(C4CC4)[nH]n3)c3ccccc3n2)C1` [compound 6h, 2-(4-benzyl-3,6-dihydropyridin-1(2G)-yl)-M-(5-cyclopropyl-1G-pyrazol-3-yl)quinazolin-4-amine], the viability at 1 µM in data set [1] (Homo sapiens, MCF7, 72 h) came out at 89.7%; in the data set “in vitro” (mcf10a cells), 59.8%. Moreover, the “pENSA (%) Immunofluor ecense (1 µM)” value with pENSA was 93%. Moreover, in data set [2] (setting [3]), the IC50 came out at 995 nM. In addition, in data set [2] (compound 1 µM), the activity at 1 µM is 46%.

Consider `N#CCc1ccc(C2=CCN(c3nc(Nc4cc(C5CC5)[nH]n4)c4ccccc4n3)CC2)cc1F` [compound 6n, 2-(4-(1-(4-((5-cyclopropyl-1G-pyrazol-3-yl)amino)quinazolin-2-yl)-1,2,3,6-tetrahydropyridin-4-yl)-2-fluorophenyl)acetonitrile], for which the viability at 1 µM in data set [1] (Homo sapiens, MCF7, 72 h) was 110%. Moreover, the viability at 1 µM in the data set “in vitro” (mcf10a cells) was 116%. In data set [2], the IC50 stood at 121 nM and the activity at 1 µM was found to be 30.8%.

On to `N#Cc1ccccc1S(=O)(=O)N1CC2CC1CN2c1nc(Nc2cc(C3CC3)[nH]n2)c2ccccc2n1` (centres unmarked) [compound 15v, 2-((5-(4-((5-cyclopropyl-1G-pyrazol-3-yl)amino)quinazolin-2-yl)-2,5-diazabicyclo[2.2.1]heptan-2-yl)sulfonyl)benzonitrile], for which the viability at 1 µM came to 80.5% in data set [1] (Homo sapiens, MCF7, 72 h) and 81.8% in the data set “in vitro” (mcf10a cells). Besides, in data set [2], the IC50 is 52.7 nM. Further, the activity at 1 µM in data set [2] is 29.5%.

Regarding `N#CCc1ccc(Nc2nc(Nc3cccc(N)c3)c3ccccc3n2)cc1` [compound 3n, 2-(4-((4-((3-aminophenyl)amino)quinazolin-2-yl)amino)phenyl)acetonitrile], the viability at 1 µM worked out at 117% in data set [1] (Homo sapiens, MCF7, 72 h) and 95.2% in “in vitro”. For the same compound, the activity at 1 µM in data set [2] (compound 1 µM) was 125%.

For the compound `CNC(=O)c1ccc(Nc2nc(Nc3cc(C4CC4)[nH]n3)c3ccccc3n2)cc1` [4ae, 4-((4-((5-cyclopropyl-1G-pyrazol-3-yl)amino)quinazolin-2-yl)amino)-M-methylbenzamide], the viability at 1 µM in data set [1] (Homo sapiens, MCF7, 72 h) worked out at 72.8%; in “in vitro” (mcf10a cells) it was 70.5%. In data set [2] (compound 1 µM), the activity at 1 µM is 41.7%.

Turning to `N#CCc1ccc(Nc2nc(Nc3ccc(Cl)nn3)c3ccccc3n2)cc1` [compound 3i, 2-(4-((4-((6-chloropyridazin-3-yl)amino)quinazolin-2-yl)amino)phenyl)acetonitrile], the viability at 1 µM in data set [1] (Homo sapiens, MCF7, 72 h) stood at 95.6%; in the data set “in vitro” it was 51.8%. For the same compound, in data set [2] (compound 1 µM), the activity at 1 µM is 126%.

In the case of `CNc1nc(Nc2cc(C3CC3)[nH]n2)c2ccccc2n1` [compound 4cb, N^4-(5-cyclopropyl-1H-pyrazol-3-yl)-N^2-methylquinazoline-2,4-diamine], the viability at 1.25 µM in data set [1] (Homo sapiens, MCF7, 72 h) was determined as 87.5%; in “in vitro”, 102%. Further, the activity at 10 µM in data set [2] (footnote b: concentration 10 µM, read-out: MASTL activity (%) HTRF) is 53.1%.

For the compound `N#CCc1ccc(Nc2nc(NC3=NC(=O)CS3)c3ccccc3n2)cc1` [compound 3j, 2-(4-((4-((4-oxo-4,5-dihydrothiazol-2-yl)amino)quinazolin-2-yl)amino)phenyl)acetonitrile], the viability at 1 µM stood at 108% in data set [1] (Homo sapiens, MCF7, 72 h) and 84.2% in the data set “in vitro”. Also, in data set [2] (compound 1 µM), the activity at 1 µM is 92.5%.

Consider `N#Cc1cc(Cl)ccc1C1=CCN(c2nc(Nc3cc(C4CC4)[nH]n3)c3ccccc3n2)CC1` [compound 6o, 5-chloro-2-(1-(4-((5-cyclopropyl-1G-pyrazol-3-yl)amino)quinazolin-2-yl)-1,2,3,6-tetrahydropyridin-4-yl)benzonitrile], for which the viability at 1 µM in data set [1] (Homo sapiens, MCF7, 72 h) came out at 48.4%; in the data set “in vitro” (mcf10a cells), 24.9%. Besides, the activity at 1 µM in data set [2] stood at 61.2%.

Consider `N#CCc1ccc(Nc2nc(Nc3ccccc3F)c3ccccc3n2)cc1` [compound 3k, 2-(4-((4-((2-fluorophenyl)amino)quinazolin-2-yl)amino)phenyl)acetonitrile], for which the viability at 1 µM is 120% in data set [1] (Homo sapiens, MCF7, 72 h) and 96.6% in the data set “in vitro”. Besides, in data set [2] (compound 1 µM), the activity at 1 µM was found to be 99.1%.

On to `CC(C)S(=O)(=O)c1ccccc1Nc1nc(Nc2ccc(CC#N)cc2)nc2ccccc12` [compound 3g, 2-(4-((4-((2-(isopropylsulfonyl)phenyl)amino)quinazolin-2-yl)amino)phenyl)acetonitrile], for which the viability at 1.1 µM in data set [1] (Homo sapiens, MCF7, 72 h, read-out: Cell viability (%) WST-8, MCF7, footnote d: concentration 1.1 µM, 72 hours) is 109%; in “in vitro”, 99.7%. Also, in data set [2] (footnote c: concentration 3.3 µM), the activity at 3.3 µM is 127%.

For the compound `CC(C)(C)OC(=O)N1CC2C(C1)C2Nc1nc(Nc2cc(C3CC3)[nH]n2)c2ccccc2n1` (centres unmarked) [compound 4cg, tert-butyl 6-((4-((5-cyclopropyl-1H-pyrazol-3-yl)amino)quinazolin-2-yl)amino)-3-azabicyclo[3.1.0]hexane-3-carboxylate], the “Cell viability (%) WST-8, MCF7 (1 µM)” value in data set [1] (compound 1 µM, 72 hours, 1 µM) was determined as 73.6%. Also, in “in vitro”, the viability at 1 µM came to 117%. In data set [2] (compound 1 µM, 1 µM), the “MASTL activity (%) HTRF (1 µM)” value was 76.4%.

As for `N#Cc1ccc(CNc2nc(Nc3cc(C4CC4)[nH]n3)c3ccccc3n2)cc1` [compound 4ch, 4-(((4-((5-cyclopropyl-1G-pyrazol-3-yl)amino)quinazolin-2-yl)amino)methyl)benzonitrile], the viability at 1 µM in data set [1] (Homo sapiens, MCF7, 72 h) worked out at 73.6%; in the data set “in vitro” (mcf10a cells) it was 32%. Besides, the activity at 1 µM in data set [2] came to 43%.

As for `c1ccc2c(Nc3cc(C4CC4)[nH]n3)nc(Nc3ccc4cn[nH]c4c3)nc2c1` [compound 4de, N^4-(5-cyclopropyl-1H-pyrazol-3-yl)-N^2-(1H-indazol-6-yl)quinazoline-2,4-diamine], the viability at 1 µM in data set [1] (Homo sapiens, MCF7, 72 h) is 44.2%; in the data set “in vitro” it was 24%. In addition, the activity at 1 µM in data set [2] (compound 1 µM) was found to be 31.8%.

As to `CCNC(=O)c1ccc(Nc2nc(Nc3cc(C4CC4)[nH]n3)c3ccccc3n2)cc1` [4af, 4-((4-((5-cyclopropyl-1G-pyrazol-3-yl)amino)quinazolin-2-yl)amino)-M-ethylbenzamide], the viability at 1 µM amounted to 66.6% in data set [1] (Homo sapiens, MCF7, 72 h) and 66.5% in the data set “in vitro” (mcf10a cells). Besides, in data set [2] (compound 1 µM), the activity at 1 µM was found to be 49.6%.

What is called IC50 is the concentration at which inhibition is half-maximal.
